Consider six compounds from ChEMBL document CHEMBL5576038, “Design of a novel long-acting dual GLP-1/GIP receptor agonist” (Bioorg Med Chem, 2024).

Molecules are shown by their SMILES. The source made the active and inactive calls. No cut-off for these calls is given here. Where a SMILES comes first, the peptide text is derived from it. [ ]: non-standard residue; d: D form. The star is where a group is joined. X1 = N[C@@H](CCCCNC(=O)CC[C@H](NC(=O)CCCCCCCCCCCCCCCCCCC(=O)O)C(=O)O)C(=O)NCCCC[C@H](N)C(=O)N[C@@H](CCCCNC(=O)C*)C(=O)O; X4 = O=C(O)CCCCCCCCCCCCCCCCCCC(=O)NCCOCCOCC(=O)N[C@@H](CCC(=O)N[C@@H](CCC(=O)N[C@@H](CCCCNC(=O)C*)C(=O)O)C(=O)O)C(=O)O; X3 = O=C(O)CCCCCCCCCCCCCCCCC(=O)NCCOCCOCC(=O)N[C@@H](CCC(=O)N[C@@H](CCC(=O)N[C@@H](CCCCNC(=O)C*)C(=O)O)C(=O)O)C(=O)O; X5 = O=C(O)CCCCCCCCCCCCCCCCCCC(=O)N[C@@H](CCC(=O)NCCOCCOCC(=O)NCCOCCOCC(=O)N[C@@H](CCCCNC(=O)C*)C(=O)O)C(=O)O; Aib = CC(C)(N)C(=O)O

In assay [1] the target is T1, Gastric inhibitory polypeptide receptor (Homo sapiens, UniProt P48546).
T1 sequence (P48546 whole entry): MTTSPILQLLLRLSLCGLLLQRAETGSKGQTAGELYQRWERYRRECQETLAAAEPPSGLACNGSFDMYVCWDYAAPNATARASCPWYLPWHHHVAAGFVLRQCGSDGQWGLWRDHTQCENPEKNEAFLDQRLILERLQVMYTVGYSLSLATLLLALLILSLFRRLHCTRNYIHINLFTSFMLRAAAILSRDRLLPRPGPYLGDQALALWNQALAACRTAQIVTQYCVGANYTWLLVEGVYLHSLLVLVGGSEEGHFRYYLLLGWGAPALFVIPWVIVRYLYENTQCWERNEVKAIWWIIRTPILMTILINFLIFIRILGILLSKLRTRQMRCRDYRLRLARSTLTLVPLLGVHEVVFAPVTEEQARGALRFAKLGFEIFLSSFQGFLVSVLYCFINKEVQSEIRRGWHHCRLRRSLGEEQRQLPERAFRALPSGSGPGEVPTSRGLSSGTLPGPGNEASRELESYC
As to the kind of experiment: Agonist activity at human GIPR expressed in CHO cells assessed as increase in cAMP production incubated for 30 mins by Eu-cAMP tracer based microplate reader analysis. The format is functional, cell-based. (In general: cAMP levels reflect the balance of adenylyl cyclase and phosphodiesterase activity.)

For assay [2], the target named is Glucagon-like peptide 1 receptor (Homo sapiens, UniProt P43220). As to the kind of experiment: Agonist activity at human GLP-1R expressed in CHO cells assessed as increase in cAMP production incubated for 30 mins by Eu-cAMP tracer based microplate reader analysis. In kind it is functional, cell-based.
For a further assay, the system named is Mus musculus. As to the kind of experiment: Glucose-lowering effect in male ICR mouse assessed as reduction in plasma glucose AUC (0 to 72 hrs) at 30 nmol/kg, sc pretreated for 71 hrs followed by […] administration and measured after 60 mins by oral glucose tolerance test. In kind it is functional, organism-based.

Sequence of Glucagon-like peptide 1 receptor (P43220 whole entry): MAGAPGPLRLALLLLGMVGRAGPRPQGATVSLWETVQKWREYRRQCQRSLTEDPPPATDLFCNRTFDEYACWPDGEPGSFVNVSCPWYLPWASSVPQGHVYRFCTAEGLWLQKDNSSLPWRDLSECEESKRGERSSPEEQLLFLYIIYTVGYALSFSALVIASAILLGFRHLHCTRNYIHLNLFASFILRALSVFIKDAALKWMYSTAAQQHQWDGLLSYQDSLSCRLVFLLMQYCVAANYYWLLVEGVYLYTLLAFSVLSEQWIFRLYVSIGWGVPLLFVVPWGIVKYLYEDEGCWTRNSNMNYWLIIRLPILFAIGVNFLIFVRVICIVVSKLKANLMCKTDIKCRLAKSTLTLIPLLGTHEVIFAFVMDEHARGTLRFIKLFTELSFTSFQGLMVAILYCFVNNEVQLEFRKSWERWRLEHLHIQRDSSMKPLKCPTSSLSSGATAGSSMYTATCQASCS

Broadly, the EC50 is the midpoint of the concentration-response curve. Consider `CC(C)C[C@H](NC(=O)[C@H](CC(C)C)NC(=O)[C@H](Cc1c[nH]c2ccccc12)NC(=O)[C@H](CCC(N)=O)NC(=O)[C@@H](NC(=O)[C@H](Cc1ccccc1)NC(=O)[C@H](CC(C)C)NC(=O)[C@H](CSCC(=O)NCCCC[C@H](NC(=O)CC[C@H](NC(=O)CC[C@H](NC(=O)COCCOCCNC(=O)CCCCCCCCCCCCCCCCC(=O)O)C(=O)O)C(=O)O)C(=O)O)NC(=O)[C@H](C)NC(=O)[C@H](C)NC(=O)[C@H](CCC(N)=O)NC(=O)[C@H](CCCCN)NC(=O)[C@H](CCC(=O)O)NC(=O)[C@H](CC(C)C)NC(=O)[C@H](Cc1ccc(O)cc1)NC(=O)[C@H](Cc1ccc(O)cc1)NC(=O)[C@H](CO)NC(=O)[C@H](Cc1ccc(O)cc1)NC(=O)[C@H](CC(=O)O)NC(=O)[C@H](CO)NC(=O)[C@@H](NC(=O)[C@H](Cc1ccccc1)NC(=O)[C@@H](NC(=O)CNC(=O)[C@H](CCC(=O)O)NC(=O)C(C)(C)NC(=O)[C@@H](N)Cc1ccc(O)cc1)[C@@H](C)O)[C@@H](C)O)C(C)C)C(=O)N[C@@H](C)C(=O)NCC(=O)NCC(=O)N1CCC[C@H]1C(=O)N[C@@H](CO)C(=O)N[C@@H](CO)C(=O)NCC(=O)N[C@@H](C)C(=O)N1CCC[C@H]1C(=O)N1CCC[C@H]1C(=O)N1CCC[C@H]1C(=O)N[C@@H](CO)C(N)=O` (H-Y[Aib]EGTFTSDYSYYLEKQAAC(X3)LFVQWLLAGGPSSGAPPPS-NH2), for which the values for the EC50 in assay [1] and in assay [2] were 0.67 nM and 1.02 nM, respectively. Besides, the outcome in the assay with Mus musculus was Active.

In the case of `CC(C)C[C@H](NC(=O)[C@H](CC(C)C)NC(=O)[C@H](Cc1c[nH]c2ccccc12)NC(=O)[C@H](CSCC(=O)NCCCC[C@H](NC(=O)CC[C@H](NC(=O)CC[C@H](NC(=O)COCCOCCNC(=O)CCCCCCCCCCCCCCCCCCC(=O)O)C(=O)O)C(=O)O)C(=O)O)NC(=O)[C@@H](NC(=O)[C@H](Cc1ccccc1)NC(=O)[C@H](CC(C)C)NC(=O)[C@H](CCCCN)NC(=O)[C@H](C)NC(=O)[C@H](C)NC(=O)[C@H](CCC(N)=O)NC(=O)[C@H](CCCCN)NC(=O)[C@H](CCC(=O)O)NC(=O)[C@H](CC(C)C)NC(=O)[C@H](Cc1ccc(O)cc1)NC(=O)[C@H](Cc1ccc(O)cc1)NC(=O)[C@H](CO)NC(=O)[C@H](Cc1ccc(O)cc1)NC(=O)[C@H](CC(=O)O)NC(=O)[C@H](CO)NC(=O)[C@@H](NC(=O)[C@H](Cc1ccccc1)NC(=O)[C@@H](NC(=O)CNC(=O)[C@H](CCC(=O)O)NC(=O)C(C)(C)NC(=O)[C@@H](N)Cc1ccc(O)cc1)[C@@H](C)O)[C@@H](C)O)C(C)C)C(=O)N[C@@H](C)C(=O)NCC(=O)NCC(=O)N1CCC[C@H]1C(=O)N[C@@H](CO)C(=O)N[C@@H](CO)C(=O)NCC(=O)N[C@@H](C)C(=O)N1CCC[C@H]1C(=O)N1CCC[C@H]1C(=O)N1CCC[C@H]1C(=O)N[C@@H](CO)C(N)=O` (H-Y[Aib]EGTFTSDYSYYLEKQAAKLFVC(X4)WLLAGGPSSGAPPPS-NH2), the EC50 turned out to be 1.12 nM in assay [1] and 0.44 nM in assay [2]. The result in the assay on Mus musculus was Active.

In the case of `CC(C)C[C@H](NC(=O)[C@H](CC(C)C)NC(=O)[C@H](Cc1c[nH]c2ccccc12)NC(=O)[C@H](CCC(N)=O)NC(=O)[C@@H](NC(=O)[C@H](Cc1ccccc1)NC(=O)[C@H](CC(C)C)NC(=O)[C@H](CCCCN)NC(=O)[C@H](C)NC(=O)[C@H](C)NC(=O)[C@H](CCC(N)=O)NC(=O)[C@H](CSCC(=O)NCCCC[C@H](NC(=O)[C@@H](N)CCCCNC(=O)[C@@H](N)CCCCNC(=O)CC[C@H](NC(=O)CCCCCCCCCCCCCCCCCCC(=O)O)C(=O)O)C(=O)O)NC(=O)[C@H](CCC(=O)O)NC(=O)[C@H](CC(C)C)NC(=O)[C@H](Cc1ccc(O)cc1)NC(=O)[C@H](Cc1ccc(O)cc1)NC(=O)[C@H](CO)NC(=O)[C@H](Cc1ccc(O)cc1)NC(=O)[C@H](CC(=O)O)NC(=O)[C@H](CO)NC(=O)[C@@H](NC(=O)[C@H](Cc1ccccc1)NC(=O)[C@@H](NC(=O)CNC(=O)[C@H](CCC(=O)O)NC(=O)C(C)(C)NC(=O)[C@@H](N)Cc1ccc(O)cc1)[C@@H](C)O)[C@@H](C)O)C(C)C)C(=O)N[C@@H](C)C(=O)NCC(=O)NCC(=O)N1CCC[C@H]1C(=O)N[C@@H](CO)C(=O)N[C@@H](CO)C(=O)NCC(=O)N[C@@H](C)C(=O)N1CCC[C@H]1C(=O)N1CCC[C@H]1C(=O)N1CCC[C@H]1C(=O)N[C@@H](CO)C(N)=O` (H-Y[Aib]EGTFTSDYSYYLEC(X1)QAAKLFVQWLLAGGPSSGAPPPS-NH2), the EC50 was 0.012 nM in assay [1] and 0.52 nM in assay [2]. In addition, in the assay with Mus musculus, the outcome was Active.

Take `CC(C)C[C@H](NC(=O)[C@H](CC(C)C)NC(=O)[C@H](Cc1c[nH]c2ccccc12)NC(=O)[C@H](CCC(N)=O)NC(=O)[C@@H](NC(=O)[C@H](Cc1ccccc1)NC(=O)[C@H](CC(C)C)NC(=O)[C@H](CCCCN)NC(=O)[C@H](C)NC(=O)[C@H](C)NC(=O)[C@H](CCC(N)=O)NC(=O)[C@H](CCCCN)NC(=O)[C@H](CCC(=O)O)NC(=O)[C@H](CC(C)C)NC(=O)[C@H](CSCC(=O)NCCCC[C@H](NC(=O)COCCOCCNC(=O)COCCOCCNC(=O)CC[C@H](NC(=O)CCCCCCCCCCCCCCCCCCC(=O)O)C(=O)O)C(=O)O)NC(=O)[C@H](Cc1ccc(O)cc1)NC(=O)[C@H](CO)NC(=O)[C@H](Cc1ccc(O)cc1)NC(=O)[C@H](CC(=O)O)NC(=O)[C@H](CO)NC(=O)[C@@H](NC(=O)[C@H](Cc1ccccc1)NC(=O)[C@@H](NC(=O)CNC(=O)[C@H](CCC(=O)O)NC(=O)C(C)(C)NC(=O)[C@@H](N)Cc1ccc(O)cc1)[C@@H](C)O)[C@@H](C)O)C(C)C)C(=O)N[C@@H](C)C(=O)NCC(=O)NCC(=O)N1CCC[C@H]1C(=O)N[C@@H](CO)C(=O)N[C@@H](CO)C(=O)NCC(=O)N[C@@H](C)C(=O)N1CCC[C@H]1C(=O)N1CCC[C@H]1C(=O)N1CCC[C@H]1C(=O)N[C@@H](CO)C(N)=O` (H-Y[Aib]EGTFTSDYSYC(X5)LEKQAAKLFVQWLLAGGPSSGAPPPS-NH2): the EC50 in assay [1] was 0.42 nM; in assay [2], 1.34 nM.

Turning to `CC(C)C[C@H](NC(=O)[C@H](CC(C)C)NC(=O)[C@H](Cc1c[nH]c2ccccc12)NC(=O)[C@H](CSCC(=O)NCCCC[C@H](NC(=O)CC[C@H](NC(=O)CC[C@H](NC(=O)COCCOCCNC(=O)CCCCCCCCCCCCCCCCC(=O)O)C(=O)O)C(=O)O)C(=O)O)NC(=O)[C@@H](NC(=O)[C@H](Cc1ccccc1)NC(=O)[C@H](CC(C)C)NC(=O)[C@H](CCCCN)NC(=O)[C@H](C)NC(=O)[C@H](C)NC(=O)[C@H](CCC(N)=O)NC(=O)[C@H](CCCCN)NC(=O)[C@H](CCC(=O)O)NC(=O)[C@H](CC(C)C)NC(=O)[C@H](Cc1ccc(O)cc1)NC(=O)[C@H](Cc1ccc(O)cc1)NC(=O)[C@H](CO)NC(=O)[C@H](Cc1ccc(O)cc1)NC(=O)[C@H](CC(=O)O)NC(=O)[C@H](CO)NC(=O)[C@@H](NC(=O)[C@H](Cc1ccccc1)NC(=O)[C@@H](NC(=O)CNC(=O)[C@H](CCC(=O)O)NC(=O)C(C)(C)NC(=O)[C@@H](N)Cc1ccc(O)cc1)[C@@H](C)O)[C@@H](C)O)C(C)C)C(=O)N[C@@H](C)C(=O)NCC(=O)NCC(=O)N1CCC[C@H]1C(=O)N[C@@H](CO)C(=O)N[C@@H](CO)C(=O)NCC(=O)N[C@@H](C)C(=O)N1CCC[C@H]1C(=O)N1CCC[C@H]1C(=O)N1CCC[C@H]1C(=O)N[C@@H](CO)C(N)=O` (H-Y[Aib]EGTFTSDYSYYLEKQAAKLFVC(X3)WLLAGGPSSGAPPPS-NH2), the EC50 in assay [1] worked out at 0.46 nM; in assay [2] it was 0.29 nM.

Take `CC(C)C[C@H](NC(=O)[C@H](CC(C)C)NC(=O)[C@H](Cc1c[nH]c2ccccc12)NC(=O)[C@H](CCC(N)=O)NC(=O)[C@@H](NC(=O)[C@H](Cc1ccccc1)NC(=O)[C@H](CC(C)C)NC(=O)[C@H](CCCCN)NC(=O)[C@H](C)NC(=O)[C@H](C)NC(=O)[C@H](CCC(N)=O)NC(=O)[C@H](CCCCN)NC(=O)[C@H](CCC(=O)O)NC(=O)[C@H](CC(C)C)NC(=O)[C@H](CSCC(=O)NCCCC[C@H](NC(=O)CC[C@H](NC(=O)CC[C@H](NC(=O)COCCOCCNC(=O)CCCCCCCCCCCCCCCCCCC(=O)O)C(=O)O)C(=O)O)C(=O)O)NC(=O)[C@H](Cc1ccc(O)cc1)NC(=O)[C@H](CO)NC(=O)[C@H](Cc1ccc(O)cc1)NC(=O)[C@H](CC(=O)O)NC(=O)[C@H](CO)NC(=O)[C@@H](NC(=O)[C@H](Cc1ccccc1)NC(=O)[C@@H](NC(=O)CNC(=O)[C@H](CCC(=O)O)NC(=O)C(C)(C)NC(=O)[C@@H](N)Cc1ccc(O)cc1)[C@@H](C)O)[C@@H](C)O)C(C)C)C(=O)N[C@@H](C)C(=O)NCC(=O)NCC(=O)N1CCC[C@H]1C(=O)N[C@@H](CO)C(=O)N[C@@H](CO)C(=O)NCC(=O)N[C@@H](C)C(=O)N1CCC[C@H]1C(=O)N1CCC[C@H]1C(=O)N1CCC[C@H]1C(=O)N[C@@H](CO)C(N)=O` (H-Y[Aib]EGTFTSDYSYC(X4)LEKQAAKLFVQWLLAGGPSSGAPPPS-NH2): the EC50 was 0.064 nM in assay [1] and 0.25 nM in assay [2]. In the assay on Mus musculus, the outcome was Active.
